Measured values from patent US7476316B2, “Molecularly imprinted polymers (MIPS) for the selective removal of inorganic contaminants from liquids” (priority 2005, dated 2009).

How the values were obtained:
[1] = cited from earlier work
[2] = removal of arsenate from water by ligand-based MIP; settings: ligand used in suspension polymerization MIP
Text: (§1) General classes of cationic ligands that can be used in the present method include, but are not limited to, cationic oxygen containing heterocyclics, cationic nitrogen containing heterocyclics, cationic sulfur containing heterocyclics, cationic phosphorous containing heterocyclics, ammonium salts, phosphonium salts, acylinium salts, metallocenium salts, amidinium salts, imminium salts, and trityl salts. In one embodiment, the ligand can be 4-vinylbenzyl-N,N-dimethyl-N-decylammonium, 4-vinylbenzyl-N-decyl-N-methylglucammonium, N-methyl vinylpyridinium, or 4-vinylbenzyl-N,N-dimethyl-D-glucammonium.

[3] = removal of gold-containing cations from water by ligand-based MIP; settings: ligand used in cationic molecularly imprinted polymer
Text: as §1

Compound	miscibility with water [1]	removal of arsenate from water [2]	further results
OCCCCCO [1,5-pentanediol]	completely miscible		
C=Cc1ccc(C[N+](C)(C)CCCCCCCCCC)cc1.[Cl-] [Example 1, N-(4-vinylbenzyl)-N-decyl-N,N-dimethylammonium chloride]		good results	removal of gold-containing cations from water [3]: particularly good results
CCCCCO [Example 1-pentanol, 1-pentanol]			soluble in water ([1]; in water): 2.3 % weight/weight
C=Cc1ccc(C[N+](C)(CCCCCCCCCC)C[C@H](O)[C@@H](O)[C@H](O)[C@H](O)CO)cc1.[I-] (stereo partly drawn) [Example 3, N-(4-Vinylbenzyl)-N-decyl-N-methylglucammonium iodide]		good results	
CCCCC [n-pentane]	completely immiscible		
